Where two headings read alike, the source gives them in different places.
Biological target: T1, AGO2-MID domain (Homo sapiens, UniProt Q9UKV8)
T1 construct: mixed with an equal amount of a 5 μg/mL AGO2-MID domain solution
Test: Biacore competition experiment of nucleotide (monomer) for the AGO2-MID domain (Test Examples 7 and 8)
Type: binding
Conditions: for affinity for AGO2 (inhibition ratio) compared with adenosine monophosphate or uridine monophosphate: conclusion from Test Example 7; for inhibition at 100 µM: read-out: inhibition rate (%) (100 μM AGO2-MID domain solutions)
Protocol: HBS-EP+ 10× was diluted to 10-fold with pure water, and DTT was added thereto to give a final concentration of 2 mM, followed by filtration through a filter to prepare an HBS-EP+ 2 mM DTT aqueous solution. To this solution, dimethyl sulfoxide (DMSO) was added to give a final concentration of 1%, whereby a running buffer was prepared.
A monomer solution dissolved in DMSO or distilled water was diluted to 200 μM, 40 μM, 8 μM, and 1.6 μM/(2% DMSO, HBS-EP+, 2 mM DTT), and each of the diluted solutions was mixed with an equal amount of a 5 μg/mL AGO2-MID domain solution diluted with the HBS-EP+2 mM DTT solution, whereby 2.5 μg/mL AGO2-MID domain solutions containing the monomer at 100 μM, 20 μM, 4 μM, and 0.8 μM, respectively, were prepared as the HBS-EP+, 2 mM DTT, 1% DMSO solution.
A competition experiment by the siRNA was performed using a chip immobilized dT(16)-Biotin oligo thereon in the same manner as in Test Example 6. The flow rate is set to 30 μL/minute throughout the experiment, and one cycle is performed as follows: binding for 60 seconds, dissociation for 5 seconds, and regeneration 1 M NaCl for 5 seconds.
In order to stabilize the machine, the first 10 cycles are performed by adding only HBS-EP+, and thereafter, the measurement is performed for each monomer in the order of HBS-EP+(BLANK), a 2.5 μg/mL AGO2-MID domain solution (CONTROL), and 2.5 μg/mL AGO2-MID domain solutions (Sample) containing the monomer at 100 μM, 20 μM, 4 μM, and 0.8 μM, respectively, and a 2.5 μg/mL AGO2-MID domain solution (CONTROL). In the analysis, the binding level of the graph obtained by subtracting the graph for blank immobilization from the graph for the immobilized cell is used, and the residual binding ratio (%) is calculated according to ([Sample]−[BLANK])/([CONTROL]−[BLANK])×100, and the inhibition ratio (%) is calculated according to 100−(residual binding ratio).
In Table 36, the inhibition ratios (%) of 8-Br-dA (Compound I-1) and 5-fluoro-2′-deoxyuridine monophosphate (Compound I-4), and for comparison thereof, the inhibition ratios (%) of adenosine monophosphate (AMP) and uridine monophosphate (UMP) are shown.

[1] = Test Example 7, 2.5 μg/mL AGO2-MID domain solution containing the monomer at 100 μM
[2] = Test Example 8, 2.5 μg/mL AGO2-MID domain solution containing the monomer at 100 μM

SMILES | inhibition at 100 µM [2] [%] | also measured
O=c1[nH]c(=O)n([C@H]2C[C@H](O)[C@@H](COP(=O)(O)O)O2)cc1F [5-fluoro-2′-deoxyuridine monophosphate] |  | affinity for AGO2 (inhibition ratio) compared with adenosine monophosphate or uridine monophosphate: higher affinity for AGO2
Nc1ncnc2c1ncn2[C@@H]1O[C@H](COP(=O)(O)O)[C@@H](O)[C@H]1O [AMP, adenosine monophosphate, reference compound] |  | inhibition at 100 µM [1]: 27.1%
O=c1ccn([C@@H]2O[C@H](COP(=O)(O)O)[C@@H](O)[C@H]2O)c(=O)[nH]1 [UMP, uridine monophosphate, reference compound] |  | inhibition at 100 µM [1]: 35.9%
Nc1ncnc2c1nc(Br)n2[C@H]1C[C@H](O)[C@@H](COP(=O)(O)O)O1 [compound I-1, 8-bromo-2′-deoxyadenosine monophosphate] |  | inhibition at 100 µM [1]: 68.6%; affinity for AGO2 (inhibition ratio) compared with adenosine monophosphate or uridine monophosphate: higher affinity for AGO2
O=c1[nH]c(=O)n([C@H]2C[C@H](O)[C@@H](COP(=O)(O)O)O2)cc1F [compound I-4, 5-fluoro-2′-deoxyuridine monophosphate] |  | inhibition at 100 µM [1]: 42.7%
COc1cc2c(=O)[nH]c(=O)n([C@@H]3O[C@H](COP(=O)(O)O)[C@@H](O)[C@H]3O)c2cc1OC [compound I-5, ((2R,3S,4R,5R)-5-(6,7-dimethoxy-2,4-dioxo-3,4-dihydroquinazolin-1(2H)-yl)-3,4-dihydroxytetrahydrofuran-2-yl)methyl phosphate] | 87.4 | 
O=c1[nH]c(=O)n([C@@H]2O[C@H](COP(=O)(O)O)[C@@H](O)[C@H]2O)c2ccc(Cl)cc12 [compound I-6, ((2R,3S,4R,5R)-5-(6-Chloro-2,4-dioxo-3,4-dihydroquinazolin-1(2H)-yl)-3,4-dihydroxytetrahydrofuran-2-yl)methyl phosphate] | 70 | 
O=P(O)(O)OC[C@H]1O[C@@H](n2cnc3c(/C=C/c4ccccc4)ncnc32)[C@H](O)[C@@H]1O [compound I-10, ((2R,3S,4R,5R)-3,4-dihydroxy-5-(6-((E)-styryl)-9H-purin-9-yl)tetrahydrofuran-2-yl)methyl phosphate] | 73.5 | 
CN(C)c1ncnc2c1nc(Br)n2[C@@H]1O[C@H](COP(=O)(O)O)[C@@H](O)[C@H]1O [compound I-11, ((2R,3S,4R,5R)-6-(8-bromo-6-(dimethylamino)-9H-purin-9-yl)-3,4-dihydroxytetrahydrofuran-2-yl)methyl phosphate] | 60.9 | 
CN(C)c1ncnc2c1nc(C#N)n2[C@@H]1O[C@H](COP(=O)(O)O)[C@@H](O)[C@H]1O [compound I-12, ((2R,3S,4R,5R)-6-(8-cyano-6-(dimethylamino)-9H-purin-9-yl)-3,4-dihydroxytetrahydrofuran-2-yl)methyl phosphate] | 74.2 | 
COc1ccc(-c2cn([C@@H]3O[C@H](COP(=O)(O)O)[C@@H](O)[C@H]3O)c(=O)[nH]c2=O)cc1 [compound I-16, ((2R,3S,4R,5R)-3,4-Dihydroxy-5-(5-(4-methoxyphenyl)-2,4-dioxo-3,4-dihydropyrimidin-1(2H)-yl)tetrahydrofuran-2-yl)methyl phosphate] | 65.6 | 
N#Cc1cc(=O)[nH]c(=O)n1[C@@H]1O[C@H](COP(=O)(O)O)[C@@H](O)[C@H]1O [compound I-17, ((2R,3S,4R,5R)-5-(6-Cyano-2,4-dioxo-3,4-dihydropyrimidin-1(2H)-yl)-3,4-dihydroxytetrahydrofuran-2-yl)methyl phosphate] |  | inhibition at 100 µM: 86%
O=P(O)(O)OC[C@H]1O[C@@H](n2c(Br)nc3c(/C=C/c4ccccc4)ncnc32)[C@H](O)[C@@H]1O [compound I-18, ((2R,3S,4R,5R)-5-(8-Bromo-6-((E)-styryl)-9H-purin-9-yl)-3,4-dihydroxytetrahydrofuran-2-yl)methyl phosphate] | 97.8 | 
Cc1sc2c(c1C)c(=O)[nH]c(=O)n2[C@@H]1O[C@H](COP(=O)(O)O)[C@@H](O)[C@H]1O [compound I-19, ((2R,3S,4R,5R)-5-(5,6-Dimethyl-2,4-dioxo-3,4-dihydrothieno [2,3-d]pyrimidin-1 (2H)-yl)-3,4-dihydroxytetrahydrofuran-2-yl)methyl phosphate] | 89.7 | 
CC(C)c1cccc(-c2ncnc3c2ncn3[C@@H]2O[C@H](COP(=O)(O)O)[C@@H](O)[C@H]2O)c1 [compound I-20, ((2R,3S,4R,5R)-3,4-dihydroxy-5-(6-(3-isopropylphenyl)-9H-purin-9-yl)tetrahydrofuran-2-yl)methyl phosphate] | 76.9 | 
O=P(O)(O)OC[C@H]1O[C@@H](n2cnc3c(-c4ccc5ccccc5c4)ncnc32)[C@H](O)[C@@H]1O [compound I-21, ((2R,3S,4R,5R)-3,4-Dihydroxy-5-(6-(naphthalen-2-yl)-9H-purin-9-yl)tetrahydrofuran-2-yl)methyl phosphate] | 78.2 | 
O=Cc1cccc(-c2ncnc3c2ncn3[C@@H]2O[C@H](COP(=O)(O)O)[C@@H](O)[C@H]2O)c1 [compound I-22, ((2R,3S,4R,5R)-3,4-Dihydroxy-5-(6-(3-formylphenyl)-9H-purin-9-yl)tetrahydrofuran-2-yl)methyl phosphate] | 91.6 | 

Continued, in another order:

inhibition at 100 µM [2] [%] | SMILES | also measured
71.7 | O=c1[nH]c(=O)n([C@@H]2O[C@H](COP(=O)(O)O)[C@@H](O)[C@H]2O)c2cc(Cl)ccc12 [compound I-7, ((2R,3S,4R,5R)-5-(7-Chloro-2,4-dioxo-3,4-dihydroquinazolin-1(2H)-yl)-3,4-dihydroxytetrahydrofuran-2-yl)methyl phosphate] | 
77.1 | O=c1[nH]c(=O)n([C@@H]2O[C@H](COP(=O)(O)O)[C@@H](O)[C@H]2O)c2cccc(Cl)c12 [compound I-8, ((2R,3S,4R,5R)-5-(5-Chloro-2,4-dioxo-3,4-dihydroquinazolin-1(2H)-yl)-3,4-dihydroxytetrahydrofuran-2-yl)methyl phosphate] | 
70.9 | O=c1[nH]c(=O)n([C@@H]2O[C@H](COP(=O)(O)O)[C@@H](O)[C@H]2O)c2ccsc12 [compound I-9, (2R,3S,4R,5R)-5-(2,4-Dioxo-3,4-dihydrothieno[3,2-d]pyrimidin-1(2H)-yl)-3,4-dihydroxytetrahydrofuran-2-yl)methyl phosphate] | 
63.4 | O=c1cc(I)n([C@@H]2O[C@H](COP(=O)(O)O)[C@@H](O)[C@H]2O)c(=O)[nH]1 [compound I-13, ((2R,3S,4R,5R)-5-(6-Iodo-2,4-dioxo-3,4-dihydropyrimidin-1(2H)-yl)-3,4-dihydroxytetrahydrofuran-2-yl)methyl phosphate] | 
63.3 | O=c1[nH]c(=O)n([C@@H]2O[C@H](COP(=O)(O)O)[C@@H](O)[C@H]2O)cc1-c1ccccn1 [compound I-14, ((2R,3S,4R,5R)-5-(2,4-Dioxo-5-(pyridin-2-yl)-3,4-dihydropyrimidin-1 (2H)-yl)-3,4-dihydroxytetrahydrofuran-2-yl)methyl phosphate] | 
73 | O=c1[nH]c(=O)n([C@@H]2O[C@H](COP(=O)(O)O)[C@@H](O)[C@H]2O)cc1-c1ncco1 [compound I-15, ((2R,3S,4R,5R)-3,4-Dihydroxy-5-(5-(oxazol-2-yl)-2,4-dioxo-3,4-dihydropyrimidin-1(2H)-yl)tetrahydrofuran-2-yl)methyl phosphate] | 

— US10342819B2, “Oligonucleotide having non-natural nucleotide at 5′-terminal thereof” (Kyowa Hakko Kirin Co., Ltd., priority 2014, dated 2019)
